This is an account of results in publication PMC9007951, “Systematically evaluating DOTATATE and FDG as PET immuno-imaging tracers of cardiovascular inflammation” (Scientific Reports, 2022).

The structures appear in SMILES notation.

One data set relates to atherosclerotic rabbits. The experiment in a line: In vivo PET/MR imaging of aortic inflammation in rabbits. Also noted: species or system New Zealand White rabbits. The settings on record: for SUVmax abdominal aorta: PET/MRI, median. From the text:
For the rabbit studies, 3 months old male New Zealand White (NZW) rabbits (N = 47) were purchased from Charles River Laboratories (Wilmington, MA). Randomly assigned control rabbits (N = 11) were kept on chow diet and imaged with PET/MR. Among these some animals were euthanized for biodistribution assays (N = 6) or used for time-activity characterization of aorta signal (N = 3). For the atherosclerosis model, remaining rabbits (N = 36) were placed on Western diet (initial 8 weeks on regular chow enriched with 0.3% cholesterol and 4.7% coconut oil, and the remaining time period on 0.15% enriched cholesterol diet from Research diets, Inc. Brunswick, NJ). In order to induce atherosclerotic lesions, these rabbits were subjected to two endothelial denudations of the aorta through the right and left femoral artery at 2 and 6 weeks after diet initiation, respectively, as described previously. Briefly, femoral artery angioplasty was performed under fluoroscopic guidance using a 4F-Fogarty embolectomy catheter. Once catheter is inserted, catheter is positioned in the thoracic descending aorta region. The balloon was then inflated to 2 atm. Catheter is then pulled back over the entire length of the aorta down to the iliac bifurcation, and the pullback procedure is repeated for two additional times. Catheter is then removed, and femoral artery is ligated. Rabbits with atherosclerosis were imaged 4 months after diet initiation (N = 36). Among these animals some were euthanized for ex vivo biodistribution analyses (N = 9), used for time-activity characterization of aorta signal (N = 3) or near infra-red imaging ([…]). The remaining atherosclerotic rabbits were fed a Western diet for an additional 3 months (N = 9) to advance atherosclerosis. At the end of the 3-month period, these rabbits were imaged and euthanized.
In vivo imaging in rabbits was performed on a 3 Tesla Biograph mMR (Siemens, Erlangen, Germany) Positron Emission Tomography/Magnetic Resonance Imaging (PET/MRI) clinical scanner. To establish the optimal imaging time-point for [^68Ga]Ga-DOTATATE aortic imaging in this animal model, 5 rabbits underwent dynamic PET imaging for 3 h immediately after injection of approximately 190 MBq of the tracer. Rabbits where injected intravenously via the ear vein with approximately 190 MBq of either [^18F]F- FDG or [^68Ga]Ga-DOTATATE. Rabbits undergoing [^18F]F-FDG scans were fasted for 3–4 h before injection to avoid tracer uptake in the bowels, as previously validated. […]
Using OsiriX v5.6 software (OsiriX Foundation, Geneva, Switzerland), regions of interest (ROIs) were drawn to determine organ radioactivity concentration. […]

A short description of data set [1]: Ex vivo autoradiography of heart and aorta. The format is in vivo, mice. The settings on record: for ratio between the signal in infarcted and remote myocardium: MI mice, N = 4 per group. The protocol:
Tissues (heart and aorta) were placed in a film cassette against a phosphorimaging plate (BASMS-2325, Fujifilm) at − 20 °C to determine the regional radioactivity distribution. Exposure time was optimized to dose, tracer, and tissue uptake differences. Tissues from the heart of [^18F]F-FDG injected animals were exposed for 5 min, [^18F]F-FDG infused aortas were exposed for 30 min and tissues from animals in the [^64Cu]Cu-DOTATATE group were exposed for 60 min. The plates were read at a pixel resolution of 25 μm with a Typhoon 7000IP plate reader (GE Healthcare, Pittsburgh, PA). Images were analyzed using ImageJ software v1.52 (Madison, WI).

As to `OC[C@H]1OC(O)[C@H]([18F])[C@@H](O)[C@@H]1O` (stereo partly shown) [[^18F]F-FDG, [^18F]F-fluorodeoxyglucose], the SUVmax abdominal aorta in the data set on atherosclerotic rabbits (athero4mo rabbits, circulation 120 min ([^68Ga]Ga-DOTATATE, N = 32) or 180 min ([^18F]F-FDG, N = 27)) was determined as 0.446; in the data set on atherosclerotic rabbits (athero7mo rabbits, N = 7), 0.515; in the data set with atherosclerotic rabbits (control rabbits, circulation 120 min ([^68Ga]Ga-DOTATATE, N = 10) or 180 min ([^18F]F-FDG, N = 11)) it was 0.349. For the same compound, the “ratio between the signal in infarcted and remote myocardium” value in data set [1] is recorded as approximately 1.

`C[C@@H](O)[C@H](NC(=O)[C@@H]1CSSC[C@H](NC(=O)[C@@H](Cc2ccccc2)NC(=O)CN2CCN(CC(=O)O)CCN(CC(=O)O)CCN(CC(=O)O)CC2)C(=O)N[C@@H](Cc2ccc(O)cc2)C(=O)N[C@H](Cc2c[nH]c3ccccc23)C(=O)N[C@@H](CCCCN)C(=O)N[C@@H]([C@@H](C)O)C(=O)N1)C(=O)O` [[^64Cu]Cu-DOTATATE, metal not drawn]: in data set [1], the “ratio between the signal in infarcted and remote myocardium” value is “approximately 2”. The “signal in atherosclerotic plaques compared to healthy (no plaque) areas of the aorta” value in data set [1] (atherosclerotic mice, N = 4) was “twofold higher”.

With `C[C@@H](O)[C@H](NC(=O)[C@@H]1CSSC[C@H](NC(=O)[C@@H](Cc2ccccc2)NC(=O)CN2CCN(CC(=O)O)CCN(CC(=O)O)CCN(CC(=O)O)CC2)C(=O)N[C@@H](Cc2ccc(O)cc2)C(=O)N[C@H](Cc2c[nH]c3ccccc23)C(=O)N[C@@H](CCCCN)C(=O)N[C@@H]([C@@H](C)O)C(=O)N1)C(=O)O` [[^68Ga]Ga-DOTATATE, metal not drawn], the “change of tracer accumulation (SUVmax abdominal aorta) athero7mo vs athero4mo” value in the data set with atherosclerotic rabbits (rabbits kept on Western Diet for 7 months, paired analysis, N = 7, p > 0.9999) was “did not detect a further increase in tracer accumulation”.
